This note sets out measurements from PubChem BioAssay AID1259333 (Broad Institute, 2017).

Each structure is given as a SMILES string. The source made the active and inactive calls. No rule for the calls is given here; tested in parental BL2 cells.

The assay concerns cytotoxicity, CellTiter-Glo ATP luminescence. Kind of assay: loss of cell viability by ATP content – CellTiter-Glo, cytotoxicity control, dose response (AID 1259333). For orientation: Cellular ATP, detected with luciferase, serves as a proxy for viable cell number.
What is called AC50 is the concentration at which the activity in the assay is half-maximal. For `Cc1ccc(S(=O)(=O)N2CCCC2CNC(=O)c2ccc3c(c2)OCO3)cc1` (stereo not drawn), the AC50 was 4.95 µM. Next, `CC1CC(C)C(=NNC(N)=O)C(C(O)CC2CCC(=O)NC2=O)C1` (stereo not drawn): > 20 µM (inactive); `COc1ccc(S(=O)(=O)Nc2ccc3c(c2)C(=O)N([C@@H](C)CO)C[C@H](C)[C@H](CN(C)Cc2ccc(C(F)(F)F)cc2)OCCCC[C@H](C)O3)cc1`: > 20 µM (inactive). As for `Cc1cc(C)cc(N2C(=O)CC(Sc3nnnn3-c3ccccc3)C2=O)c1` (stereo not drawn), the AC50 is 4.02 µM. For `C[n+]1c(-c2ccccc2)cc2c(=Cc3ccc([N+](=O)[O-])cc3)c3ccccc3n21`, the concentration at half-maximal activity (AC50) is 9.92 µM.

`N#C[C@H]1[C@H](c2ccc(C#Cc3ccccc3F)cc2)[C@@H](CO)N1C(=O)c1cccnc1`: the half-maximal activity concentration (AC50) is 11.2 µM. As for `C=CC[n+]1c(/C=C2\C=Cc3cc(C)ccc3N2CC)ccc2ccccc21`, the AC50 is 7.46 µM.

Take `NC(=O)c1c(Br)n(C2OC(CO)C(O)C2O)c2ncnc(N)c12` (stereo not drawn): the concentration at half-maximal activity (AC50) is 3.14 µM. The result for `CC1CC(C)(O)CC(C(O)CC2CC(=O)NC(=O)C2)C1=O` (stereo not drawn) reads 7.54 µM; that for `COC(=O)c1ccc2nc(NC(=O)C(C)(C)C)sc2c1`, 7.83 µM; that for `CC12CCC3C(CCC4(O)CC(O)CCC34C=O)C1(O)CCC2C1=CC(=O)OC1` (stereo not drawn), 3.23 µM. The result for `O=C(Nc1cccc(N2C(=O)C=CC2=O)c1)c1cccs1` reads 2.26 µM; that for `COC(=O)C1=C(C)NC(C)=C(C(=O)OCCCN2CCC(c3ccccc3)(c3ccccc3)CC2)[C@H]1c1cccc([N+](=O)[O-])c1`, > 20 µM (inactive); that for `CN(C)C(=S)SSC(=S)N(C)C`, 1.36 µM. `C[C@H](CO)N1C[C@H](C)[C@@H](CN(C)Cc2cccc(C(F)(F)F)c2)OCc2ccccc2-c2c(n(C)c3ccccc23)C1=O`: the AC50 was 6.4 µM. As for `N#C[C@@H]1[C@H](c2ccc(C#CC3CCCC3)cc2)[C@@H](CO)N1C(=O)Nc1ccc(F)cc1`, the AC50 is > 20 µM (inactive). For `Cc1noc(C)c1S(=O)(=O)Nc1ccc2c(c1)C(=O)N([C@H](C)CO)C[C@H](C)[C@@H](CN(C)C(=O)Nc1cccc3ccccc13)OCCCC[C@H](C)O2`, the AC50 was > 20 µM (inactive). As for `NCCOc1ccc(C23CC4CC(CC(C4)C2)C3)cc1`, the AC50 was 4.9 µM. The result for `C[C@H]1CN([C@@H](C)CO)C(=O)c2c(c3ccccc3n2C)-c2ccccc2CO[C@@H]1CN(C)S(=O)(=O)c1ccc([N+](=O)[O-])cc1` reads > 20 µM (inactive); that for `C[C@@H]1CN([C@H](C)CO)C(=O)c2c(c3ccccc3n2C)-c2ccccc2CO[C@H]1CN(C)C(=O)Nc1cccc(Cl)c1Cl`, 10.1 µM. Consider `N#C[C@@H]1[C@H](c2ccc(C#CC3CCCC3)cc2)[C@H](CO)N1C(=O)Cc1ccccn1`, for which the AC50 is > 20 µM (inactive). As to `Cn1cnc([N+](=O)[O-])c1S(=O)(=O)Oc1cccc2ccccc12`, the concentration at half-maximal activity (AC50) was 1.91 µM. The result for `C[C@@H]1CN([C@H](C)CO)C(=O)c2ccccc2-c2ccccc2CO[C@@H]1CN(C)C(=O)c1cc(Cl)cc(Cl)c1` reads 8.71 µM; that for `O=C(Cn1ncc(Cl)c(Cl)c1=O)NC1CCCCC1`, 9.64 µM; that for `O=C(Nc1ccc([N+](=O)[O-])cc1Cl)c1cc(Cl)ccc1O`, > 7 µM (inactive). Turning to `COc1cccc(C#Cc2ccc([C@H]3[C@@H](C#N)N(C(=O)c4ccccn4)[C@@H]3CO)cc2)c1`, the AC50 was 9.74 µM. For `CC1CC(C)C(=O)C(C(O)CC2CC(=O)NC(=O)C2)C1` (stereo not drawn), the AC50 was > 20 µM (inactive). Next, `COc1c(-c2coc3cc4c(cc3c2=O)CC(O)C(C)(C)O4)ccc2c1C=CC(C)(C)O2` (stereo not drawn): > 20 µM (inactive); `C[C@@H]1CCCCO[C@@H](CN(C)Cc2ccc(Cl)c(Cl)c2)[C@H](C)CN([C@H](C)CO)C(=O)c2cc(NS(=O)(=O)c3cccs3)ccc2O1`: 8.68 µM. The result for `COc1ccc2c(c1)c1ncn(Cc3ccccn3)c(=O)c1n2C` reads > 20 µM (inactive); that for `OC1CC2CCC(C1)N2CCCN1c2ccccc2Sc2ccc(Cl)cc21` (stereo not drawn), 10.6 µM.

In the case of `COc1cc(C(=O)CCN2CCC(c3ccccc3)C2)cc(OC)c1OC` (stereo not drawn), the AC50 was 7.27 µM. The result for `COc1cccc(NC(=O)N2CC(=O)N3[C@H](CO)[C@@H](c4ccc(C#CCC5CCCC5)cc4)[C@H]3C2)c1` reads 4.13 µM; that for `COc1ccc(C#Cc2ccc([C@H]3[C@@H](CO)N4CCCCN(S(=O)(=O)c5cn(C)cn5)C[C@H]34)cc2)cc1`, 10.8 µM; that for `C[C@@H]1CN([C@H](C)CO)C(=O)c2c(c3ccccc3n2C)-c2ccccc2CO[C@@H]1CN(C)C(=O)c1cc(Cl)cc(Cl)c1`, 9.93 µM.

As to `COCCn1c(C)cc(C(=O)COC(=O)c2ccc(Cl)c(S(N)(=O)=O)c2)c1C`, the AC50 was 3.01 µM. The result for `C[C@@H]1CN([C@@H](C)CO)C(=O)c2c(c3ccccc3n2C)-c2ccccc2CO[C@H]1CN(C)Cc1cccc(C(F)(F)F)c1` reads 3.94 µM. For `C[n+]1c2n(c3ccccc31)N=C(c1ccc(-c3ccccc3)cc1)CS2`, the AC50 is 6.3 µM.

Turning to `O=C(Nc1ccccc1F)N1CCCCN2[C@H](CO)[C@H](c3ccc(/C=C/c4ccccc4)cc3)[C@H]2C1`, the AC50 was > 20 µM (inactive).

`N#Cc1c(Br)n(C2OC(CO)C(O)C2O)c2ncnc(N)c12` (stereo not drawn): the AC50 was 4.91 µM.

Turning to `O=C1/C(=C/c2ccccc2)C[C@@]2(O)C3Cc4ccc(O)c5c4[C@@]2(CCN3CC2CC2)[C@H]1O5`, the concentration at half-maximal activity (AC50) is 2.6 µM. The result for `CC(C)(C)[C@H](N)C(=O)N[C@H]1CCC2C3CC=C4C[C@@H](O)CC[C@]4(C)C3CC[C@@]21C` (stereo partly drawn) reads 5.7 µM; that for `C=C1C(=O)C23C(O)C1CCC2C12CCCC(C)(COC(C)=O)C1C(O)C3(O)OC2` (stereo not drawn), 5.52 µM.

For the compound `Cc1cc(OCC(=O)OCC(=O)NCc2ccco2)ccc1Cl`, the AC50 is 2.21 µM. As for `N#C[C@H]1[C@H](c2ccc(C#CC3CCCCC3)cc2)[C@H](CO)N1C(=O)Nc1ccc(F)cc1`, the AC50 was > 20 µM (inactive).

Take `COc1c(O)cc2oc3cc(O)c(CC=C(C)C)c(O)c3c(=O)c2c1CC=C(C)C`: the AC50 was 6.98 µM. Consider `COc1ccc(C[C@H]2NC[C@H](O)[C@H]2OC(C)=O)cc1`, for which the AC50 was 2.75 µM.

As for `CCN1/C(=C/c2sc(-c3ccccc3C)c[n+]2C)Sc2ccccc21`, the AC50 is 9.06 µM. Regarding `C[C@@H]1O[C@@H](O[C@H]2C[C@@H](O)[C@]3(CO)[C@H]4[C@H](O)C[C@]5(C)[C@@H](C6COC(=O)C6)CC[C@]5(O)[C@@H]4CC[C@]3(O)C2)[C@H](O)[C@H](O)[C@H]1O` (stereo partly drawn), the AC50 was 1.87 µM. On to `CC(=O)OCC12CC(OC(=O)CC(C)C)C(C)=CC1OC1C(O)C(OC(C)=O)C2(C)C12CO2` (stereo not drawn), for which the concentration at half-maximal activity (AC50) was 3.67 µM. In the case of `COc1ccc(CN2CC3(CN(C(=O)Cc4ccccc4)C3)c3c([nH]c4cc(OC)ccc34)[C@@H]2CO)cc1`, the AC50 is 9.43 µM. As to `CC(C)(C)OC(=O)CC(S(=O)(=O)c1ccccc1)S(=O)(=O)c1ccccc1`, the concentration at half-maximal activity (AC50) is 6.37 µM. Next, `COc1ccccc1C(=O)Nc1ccc2c(c1)C(=O)N(C)[C@H]1CC[C@H](CC(=O)Nc3cccc(C(C)C)c3)O[C@@H]1CO2`: > 20 µM (inactive); `C[C@@H]1CN([C@H](C)CO)C(=O)c2c(c3ccccc3n2C)-c2ccccc2CO[C@H]1CN(C)C(=O)c1cc(Cl)cc(Cl)c1`: > 20 µM (inactive); `C[C@H]1O[C@@H](O[C@H]2[C@@H](O)C[C@H](O[C@H]3[C@@H](O)C[C@H](O[C@H]4CC[C@]5(C)C6C[C@@H](O)[C@]7(C)[C@@H](C8=CC(=O)OC8)CC[C@]7(O)C6CC[C@@H]5C4)O[C@@H]3C)O[C@@H]2C)C[C@H](O)[C@@H]1O` (stereo partly drawn): 2.71 µM.

With `CCN(CC)C(=O)c1ccc(NC(=O)Nc2ccccc2F)cc1`, the half-maximal activity concentration (AC50) is 3.45 µM.

Take `c1ccc2sc(-c3ccc4c(c3)OCO4)nc2c1`: the half-maximal activity concentration (AC50) was 5.19 µM. Next, `C[C@H]1CN([C@@H](C)CO)C(=O)c2ccccc2-c2ccccc2CO[C@H]1CN(C)Cc1ccc(Oc2ccccc2)cc1`: > 20 µM (inactive); `COc1ccc(CC2C(=O)NC(C)C(=O)N(C)C3C(=O)N(C)C(Cc4ccc(O)c(c4)Oc4ccc(cc4)C3O)C(=O)NC(C)C(=O)NC(C)C(=O)N2C)cc1` (stereo not drawn): 8.5 µM. With `CC(C)(C)CC(C)(C)c1ccc(O)c(Cc2ccc(Cl)cc2Cl)c1`, the AC50 is 7.05 µM. For the compound `C[C@@H]1CN([C@H](C)CO)C(=O)c2c(c3ccccc3n2C)-c2ccccc2CO[C@H]1CN(C)Cc1cccc(C(F)(F)F)c1`, the AC50 is > 20 µM (inactive). The result for `O=C(Cc1ccccc1)N1CC[C@@H]2[C@H]1c1cc(C#Cc3cccc(F)c3)ccc1N[C@@H]2CO` reads 10.8 µM; that for `CCN(CC)c1ccc(C(NC(=O)C(C)C)c2ccc3cccnc3c2O)cc1` (stereo not drawn), 9.15 µM; that for `CCS(=O)(=O)N1[C@H](CO)[C@@H](c2ccc(C#Cc3ccccc3F)cc2)[C@@H]1C#N`, > 20 µM (inactive). For the compound `COC(=O)C12OCC34C(CC5C(C)=C(O)C(=O)CC5(C)C3C(O)C1O)OC(=O)C(OC(=O)C=C(C)C)C24` (stereo not drawn), the AC50 was 3.11 µM. The result for `C[C@H](CO)N1C[C@H](C)[C@@H](CN(C)Cc2ccc(Oc3ccccc3)cc2)OCc2ccccc2-c2ccccc2C1=O` reads > 20 µM (inactive); that for `COc1ccc(CC2C(=O)NC(C)C(=O)N(C)C3Cc4ccc(cc4)Oc4cc(ccc4O)CC(C(=O)NC(C)C(=O)NC(C)C(=O)N2C)N(C)C3=O)cc1` (stereo not drawn), 10.8 µM. As for `CC(NCC(O)COCCC12CC3CC(CC(C3)C1)C2)c1ccccc1` (stereo not drawn), the AC50 was 6.49 µM. For `CCC(C)[C@H]1O[C@]2(CC[C@@H]1C)C[C@@H]1C[C@@H](C/C=C(\C)[C@@H](OC3C[C@H](OC)C(O[C@H]4C[C@H](OC)[C@@H](O)[C@H](C)O4)[C@H](C)O3)[C@@H](C)/C=C/C=C3\CO[C@@H]4[C@H](O)C(C)=C[C@@H](C(=O)O1)[C@]34O)O2` (stereo partly drawn), the AC50 is > 20 µM (inactive). For the compound `COc1ccc2c3c(n(C)c2c1)[C@H](CO)N(C(C)=O)CC31CN(Cc2ccc(Cl)cc2)C1`, the AC50 is > 20 µM (inactive).

As for `CCN(CC)CCCNc1nc2ccccc2c2[nH]c3ccc(OC)cc3c12`, the AC50 is 6.93 µM. The result for `Cc1ccsc1C(=O)OCC(=O)c1cc(C)n(CC2CCCO2)c1C` (stereo not drawn) reads > 20 µM (inactive); that for `CC(C)(C)c1cc(C=C(C#N)C#N)cc(C(C)(C)C)c1O`, > 20 µM (inactive).
